Laboratory results taken from patent US20240293404A1, “SALT AND CRYSTAL FORMS OF AN EPIDERMAL GROWTH FACTOR RECEPTOR INHIBITOR” (Blueprint Medicines Corporation, priority 2021, published 2024).

Tests used:
[1] = Dynamic Vapor Sorption (DVS); assay type: physicochemical; conditions: between 2 and 95% relative humidity at 25° C.
Experimental: DVS was performed using a DVS Intrinsic 1. The sample (5-25 mg) was loaded into a sample pan, suspended from a microbalance and exposed to a humidified stream of nitrogen gas. The sample was held for a minimum of 5 min at each level and only progressed to the next humidity level if there was <0.002% change in weight between measurements (interval: 60 s) or 60 min had elapsed. The following program was used: • 1—Equilibration at 50% RH • 2—50% to 2%. (50%, 40%, 30%, 20%, 10%, and 2%) • 3—2% to 95% (2%, 10%, 20%, 30%, 40%, 50%, 60%, 70%, 80%, 90%, 95%) • 4—95% to 2% (95%, 80%, 70%, 60%, 50%, 40%, 30%, 20%, 10%, 2%) • 5—2% to 50% (2%, 10%, 20%, 30%, 40%, 50%)

EGFR mutant NSCLC = conditions: NSCLC patients; cited from earlier work

Row | DVS mass change [1] [wt. %] | Structure (SMILES) | time within which resistance mediated by exon 20 C797 mutation (often C797S) usually develops (EGFR mutant NSCLC) [months]
1 | 2.1 | CO[C@@H]1CCN(c2nccc(Nc3cc4c(C(C)C)ccc(N5C[C@H](CS(C)(=O)=O)[C@H]5C)c4cn3)n2)C[C@@H]1F [Compound (I) Freebase Form B] | –
2 | 7.1 | CO[C@@H]1CCN(c2nccc(Nc3cc4c(C(C)C)ccc(N5C[C@H](CS(C)(=O)=O)[C@H]5C)c4cn3)n2)C[C@@H]1F [1:0.5 Compound (I) Semi-Succinate] | –
3 | – | C=CC(=O)Nc1cc(Nc2nccc(-c3cn(C)c4ccccc34)n2)c(OC)cc1N(C)CCN(C)C [osimertinib] | ≤ 10
